Assay results published in patent US20250073209A1, “COVALENT TARGETING OF RhoA FOR CANCER THERAPY” (The University of Hong Kong, priority 2023, published 2025).

Key:
[1] = biological target: T1, RhoA (Homo sapiens, UniProt P61586); assay: RhoA-GTP rhotekin pull-down in HT29 cells, complete medium; assay type: cell-based; set-up: endogenous in cells; host or cells: HCT116, HT29; conditions: HT29, complete medium 24 h
Method: RhoA Pull-Down Activation Assay Biochem Kit (#BK036) was purchased from Cytoskeleton. According to the manufacturer's protocol, total cell lysate (0.5 mg/mL; 300 μL) was added to 7.5 μL of Rhotekin-Rho Binding Domain beads in 0.6 mL tubes. The solution mixture was incubated at 4° C. on an end-to-end rotator for 1 hour. Beads were washed with 500 μL of washing buffer once, then centrifuged at 5000g for 3 min and the supernatant was discarded. RhoA-GTP was then eluted in 2× laemmli buffer and resolved in 10% SDS-PAGE.
GTP loading onto RhoA is critical for the protein activation and mediating downstream signals. In view of the inhibitions of GDP-to-GTP exchange of RhoA by CL16 in vitro as discussed above, effects of CL16 on RhoA biology in colorectal cancer cells were examined. In the serum starvation-re-stimulation experiment, HCT116 cells were grown in serum-free medium with CL16, Rhosin or solvent control for 24 h, followed by stimulation with 10% FBS for 10 min. The cells were then lysed and the RhoA activity was assayed by the level of RhoA-GTP, which is the active form of RhoA. […] HT29 cells were incubated with solvent vehicle, CL16 or Rhosin in complete medium for 24 h. […] Confocal fluorescence images from HCT116 and HT29 cells expressing FRET RhoA-biosensor in the serum starvation-restimulation experiment were taken.

[2] = biological target: T2, FLAG-RhoA (Homo sapiens, UniProt P61586); assay: CL16-alkyne labeling of FLAG-RhoA in HCT116 cells (anti-FLAG IP, CuAAC, in-gel fluorescence); assay type: cell-based; conditions: pre-incubation 2 h
T2 construct: expressed in transfected cells; host or cells: HCT116
T2 sequence (P61586 whole entry): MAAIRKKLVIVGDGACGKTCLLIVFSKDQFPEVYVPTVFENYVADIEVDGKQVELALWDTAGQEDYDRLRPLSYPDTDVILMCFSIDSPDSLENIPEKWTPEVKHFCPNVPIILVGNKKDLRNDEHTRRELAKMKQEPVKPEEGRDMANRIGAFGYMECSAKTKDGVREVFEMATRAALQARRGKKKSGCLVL
Method: HCT116 cells transiently expressing FLAG-RhoA were pre-treated with solvent vehicle or CL16 for 2 h, followed by the incubation with CL16-alkyne in complete medium for another 2 h. The cells were then lysed and subjected to immunoprecipitation by anti-FLAG beads. The enriched proteins were reacted with rhodamine azide through copper-catalyzed azide-alkyne cycloaddition (CuAAC), boiled with sampling buffer and separated by SDS-PAGE. The protein bands were then visualized by their in-gel fluorescence or blotted for RhoA. […] HCT116 cells were pre-treated with solvent vehicle or CL16 for 2 h, followed by the incubation with CL16-alkyne in complete medium for another 2 h. The cells were then lysed, reacted with rhodamine azide through CuAAC, boiled with sampling buffer, separated by SDS-PAGE and imaged. […]
To identify protein target and any off-targets of CL16 in CRCs, a molecular probe of CL16, CL16-alkyne (FIG. 6A), was synthesized. […] The protein bands were then visualized by their in-gel fluorescence or blotted for RhoA. […] The probe-labeled proteins were installed with rhodamine through CuAAC, and visualized by their in-gel fluorescence after SDS-PAGE. A protein band with strong fluorescence was found at −22 kDa in the sample incubated with CL16-alkyne only, in line with the molecular weight of RhoA (FIG. 6C).

[3] = biological target: T1, RhoA; assay: GDP-GTP exchange assay (BODIPY-GTP); assay type: biochemical; set-up: purchased ab101594; conditions: fluorescence-based exchange assay
Method: Recombinant human RhoA protein (0.2 μg; ab101594) was incubated with GDP (50 nM) in 100 μL of GTP-exchange buffer (20 mM HEPES, 150 mM NaCl, 5 mM MgCl2, pH 7.4) at room temperature for 1 h. CL16 or solvent control was then added to the solution mixture and incubated at room temperature for another hour. For self-exchange assay, BODIPY-GTP (100 nM) was added to the solution and the fluorescence from plate was measured every 30 s. For LARG-mediated GDP-to-GTP exchange, BODIPY-GTP (100 nM) and LARG DH-PH protein (30 nM) were added to the solution mixture and the fluorescence from plate was measured every 30 s. BODIPY-GTP was excited at 477±14 nm and its fluorescence was measured at 525±30 nm using a plate reader (Clariostar).

[4] = system: RhoA; assay: FRET-RhoA biosensor imaging, serum re-stimulation; assay type: cell-based, human; conditions: transfected cells, serum-free 24 h, 10% FBS 10 min
Method: To further validate the inhibitory effects of CL16 on RhoA, HCT116 and HT29 cells were transfected with a FRET-RhoA biosensor, where cells with elevated RhoA activity would show a higher FRET/mTFP1. Specifically, HCT116 cells transfected with FRET-RhoA biosensor were treated with CL16 or solvent in serum-free medium for 24 h, washed with PBS, re-stimulated with 10% FBS for 10 min, washed, and then imaged in HBSS by confocal fluorescence microscopy. […] In addition, HCT116 cells were serum-starved and treated with CL16 or Rhosin for 24 h, followed by 10% FBS re-stimulation for 10 min. The cells were then washed and fixed by 4% paraformaldehyde, washed with PBS and stained with Alexa Fluor 488-Phalloidin in PBS (1:20, v/v) at room temperature for 15 min. The cells were washed with PBS, incubated with Hoechst (8.2 μM) in PBS for 15 min, washed and then imaged in PBS by confocal fluorescence microscopy. […] Since RhoA regulates cytoskeletal dynamics and RhoA activation can induce the formation of contractile F-actin, the reduction of F-actin fibers by CL16 treatment supports its inhibitory roles on RhoA signaling.

T1 sequence (P61586 whole entry, the tested form may be a part): as the sequence (P61586 whole entry) above

## O=C(CCl)N1N=C(c2cc3ccccc3o2)CC1c1ccco1 (centres unmarked) [CL16]
[1]
  RhoA activity (RhoA-GTP): specific inhibition of RhoA activity
[2]
  competition with CL16-alkyne labeling of FLAG-RhoA: competed with the alkyne probe labeling
[3]
  GDP-to-GTP self-exchange: significant decreases
  LARG-mediated GDP-to-GTP exchange: significant decreases
[4]
  FRET/mTFP1 upon serum re-stimulation: abolishment of the increase in FRET/mTFP1
